Measured values as given in ChEMBL document CHEMBL3882725, “Indazole derivatives as JNK inhibitors and compositions and methods related thereto” (2002).

These compounds were tested against Mitogen-activated protein kinase 9 (Homo sapiens, UniProt P45984) (assay: Inhibition of His6-tagged JNK2 (unknown origin) assessed as reduction in c-Jun phosphorylation using GST-c-Jun (1 to 79 residues) and [gamma32P]ATP incubated for 1 hr by scintillation counting assay).
Mitogen-activated protein kinase 9, sequence (P45984 whole entry, the tested form may be a part): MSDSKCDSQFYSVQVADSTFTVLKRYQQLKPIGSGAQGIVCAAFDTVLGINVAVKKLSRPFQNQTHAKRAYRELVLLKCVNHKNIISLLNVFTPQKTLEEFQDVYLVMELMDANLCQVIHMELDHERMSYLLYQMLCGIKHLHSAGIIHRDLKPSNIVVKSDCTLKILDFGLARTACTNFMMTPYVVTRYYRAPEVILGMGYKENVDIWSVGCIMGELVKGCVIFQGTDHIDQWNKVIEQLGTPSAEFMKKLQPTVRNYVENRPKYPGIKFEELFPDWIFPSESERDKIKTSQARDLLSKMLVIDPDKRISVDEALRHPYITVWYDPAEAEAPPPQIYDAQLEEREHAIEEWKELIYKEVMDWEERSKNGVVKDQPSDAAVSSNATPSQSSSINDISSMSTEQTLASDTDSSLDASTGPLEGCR

Row | SMILES | IC50
1 | C(#Cc1n[nH]c2ccc(-c3nnn[nH]3)cc12)c1ccccc1 | 1 to 10 µM
2 | CN(C)c1ccc(-c2n[nH]c3ccc(C(N)=O)cc23)cc1 | 1 to 10 µM
3 | O=C(O)Cc1nnc(-c2ccc3[nH]nc(-c4ccc(F)cc4)c3c2)[nH]1 | 1 to 10 µM
4 | FC(F)(F)c1ccc(-c2n[nH]c3ccc(-c4ncn[nH]4)cc23)cc1 | 1 to 10 µM
5 | O=C(O)/C=C/c1ccc2[nH]nc(-c3ccc(F)cc3)c2c1 | 1 to 10 µM
6 | COCC(=O)Nc1ccc(-c2n[nH]c3ccc(-c4nc[nH]n4)cc23)cc1 | 1 to 10 µM
7 | Cc1ccc(/C=C/c2n[nH]c3ccc(-c4nnc[nH]4)cc23)cc1 | 1 to 10 µM
8 | Nc1ccc(-c2n[nH]c3ccc(-c4nc[nH]n4)cc23)cc1 | 1 to 10 µM
9 | NC(=O)c1ccc2[nH]nc(-c3ccoc3)c2c1 | 1 to 10 µM
10 | O=C(Nc1cccc(-c2n[nH]c3ccc(-c4nc[nH]n4)cc23)c1)C1CC1 | 1 to 10 µM
11 | O=C(/C=C/c1ccccc1)Nc1cccc(-c2n[nH]c3ccc(-c4nc[nH]n4)cc23)c1 | 1 to 10 µM
12 | Fc1ccc(-c2n[nH]c3ccc(NCc4ccncc4)cc23)cc1 | 1 to 10 µM
13 | C[S+]([O-])c1ccc(-c2n[nH]c3ccc(-c4ncn[nH]4)cc23)cc1 (configuration not stated) | 1 to 10 µM
14 | Fc1ccc(-c2n[nH]c3ccc(-c4nc(-c5ccccc5)n[nH]4)cc23)cc1 | 1 to 10 µM
15 | O=C(NCc1ccccn1)c1ccc2[nH]nc(-c3ccc(F)cc3)c2c1 | 1 to 10 µM
16 | O=C(O)CCCNC(=O)c1ccc2[nH]nc(-c3ccc(F)cc3)c2c1 | 1 to 10 µM
17 | O=C(Nc1cccc(-c2n[nH]c3ccc(-c4nc[nH]n4)cc23)c1)C(=O)c1c[nH]c2ccccc12 | 1 to 10 µM

More lines, now with the values ahead:

Row | IC50 | SMILES
18 | 1 to 10 µM | COc1ccc(-c2n[nH]c3ccc(C(N)=O)cc23)cc1OC
19 | 0.5 to 10 µM | c1cc2[nH]nc(-c3ccc4c(c3)OCO4)c2cc1-c1nnn[nH]1
20 | 0.5 to 10 µM | O=C(Nc1cccc(-c2n[nH]c3ccc(-c4nc[nH]n4)cc23)c1)c1ccoc1
21 | 1 to 10 µM | CC(=O)N1CCN(Cc2nnc(-c3ccc4[nH]nc(-c5ccc(F)cc5)c4c3)[nH]2)CC1
22 | 0.5 to 10 µM | COCCC(=O)Nc1cccc(-c2n[nH]c3ccc(-c4nn[nH]n4)cc23)c1
23 | 1 to 10 µM | CS(=O)(=O)Nc1cccc(-c2n[nH]c3ccc(-c4nnc[nH]4)cc23)c1
24 | 0.5 to 10 µM | C[C@@H](NC(=O)c1cccc(-c2n[nH]c3ccc(-c4ncn[nH]4)cc23)c1)c1ccccc1
25 | 1 to 10 µM | Oc1ccc(-c2n[nH]c3ccc(-c4ncn[nH]4)cc23)cc1
26 | 1 to 10 µM | c1cc(OCCN2CCCC2)cc(-c2n[nH]c3ccc(-c4ncn[nH]4)cc23)c1
27 | 1 to 10 µM | COc1ccc(/C=C/c2n[nH]c3ccc(-c4nc[nH]n4)cc23)cc1
28 | 0.5 to 10 µM | CN(C)CC(=O)Nc1cccc(-c2n[nH]c3ccc(-c4nc[nH]n4)cc23)c1
29 | 1 to 10 µM | Oc1ccc2[nH]nc(-c3ccccc3)c2c1
30 | 0.5 to 10 µM | CCCC(=O)Nc1cccc(-c2n[nH]c3ccc(-c4nc[nH]n4)cc23)c1
31 | 0.5 to 10 µM | O=C(Nc1cccc(-c2n[nH]c3ccc(-c4nc[nH]n4)cc23)c1)c1cccnc1
32 | 0.5 to 10 µM | c1cc(-c2n[nH]c3ccc(-c4nnn[nH]4)cc23)ccn1
33 | 0.5 to 10 µM | O=C(Nc1cccc(-c2n[nH]c3ccc(-c4nn[nH]n4)cc23)c1)c1cccnc1
34 | ≤ 10 µM | Fc1ccc(-c2n[nH]c3ccc(-c4nc5ccccc5[nH]4)cc23)cc1
35 | 0.5 to 10 µM | NC(=O)c1ccc2[nH]nc(-c3cccc(NC(=O)C4CCOC4)c3)c2c1 (configuration not stated)
36 | 0.5 to 10 µM | CC(Oc1ccccc1)C(=O)Nc1cccc(-c2n[nH]c3ccc(-c4nc[nH]n4)cc23)c1 (configuration not stated)
37 | ≤ 10 µM | CCOC(=O)C1CCN(C(=O)c2ccc3[nH]nc(-c4ccc(F)cc4)c3c2)CC1
38 | ≤ 10 µM | O=C(Nc1ccc2[nH]nc(-c3ccc(F)cc3)c2c1)N1CCOCC1
39 | 0.5 to 10 µM | O=C(CC1CCCCC1)Nc1cccc(-c2n[nH]c3ccc(-c4nc[nH]n4)cc23)c1
40 | 0.5 to 10 µM | NC(=O)c1ccc2[nH]nc(-c3cccc(NC(=O)Cc4ccccc4F)c3)c2c1
41 | ≤ 10 µM | NCCNC(=O)c1ccc2[nH]nc(-c3ccc(F)cc3)c2c1
42 | 0.5 to 10 µM | c1csc(-c2n[nH]c3ccc(-c4nnn[nH]4)cc23)c1
